Measured values published in publication PMC10999543, “Identification of kinase modulators as host-directed therapeutics against intracellular methicillin-resistant Staphylococcus aureus” (Frontiers in Cellular and Infection Microbiology, 2024).
Like-named read-outs stand apart in the source and are kept apart here.

Columns and labels:
[1] = tested on: intracellular MRSA; type: cell-based, Staphylococcus aureus; details: for z-scoreMRSA+ mean: mean of 3 replicates; for z-scoreMRSA+ rep 1 / %GFP+ rep 1: replicate 1; for z-scoreMRSA+ rep 2 / %GFP+ rep 2: replicate 2; for z-scoreMRSA+ rep 3 / %GFP+ rep 3: replicate 3
In short: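 HeLa cells were infected with GFP-expressing MRSA (mean MOI 6.8) for 1 h, treated with 30 µg/ml gentamicin for 15 min, then incubated overnight at 37°C with kinase inhibitors and 5 µg/ml gentamicin. Flow cytometry gave % GFP-positive cells, with cell count as viability. Hits were z-score ≤ -2 (infection) and ≥ -3 (count) versus DMSO.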

[2] = tested on: HeLa cells; test: Compound screen by flow cytometry: HeLa cell count as surrogate readout of cell viability (z-scoreHeLa); type: cell-based, human
In short: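 The viability surrogate was the count of fixed HeLa cells by flow cytometry, converted to z-scores against DMSO controls with values deviating two-fold excluded. Before counting, cells had been infected with MRSA for 1 h and cleared of extracellular bacteria with gentamicin. They were then exposed overnight to kinase inhibitors in triplicate.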

[3] = PKIS compound screen, Yes/No call
[4] = PKIS compound screen, Yes/No call (effect without cell death)
[5] = PKIS compounds raw data, MRSA-infected HeLa cells
[6] = PKIS compound screen, mean of 3 replicates
[7] = PKIS compound screen, replicate 1
[8] = PKIS compound screen, replicate 2
[9] = PKIS compound screen, replicate 3
[10] = PKIS compounds raw data, replicate 1, HeLa cell count
[11] = PKIS compounds raw data, replicate 2, HeLa cell count
[12] = PKIS compounds raw data, replicate 3, HeLa cell count
[13] = PKIS compound screen raw data, MRSA-infected HeLa cells
[14] = PKIS compound screen, MRSA-infected HeLa cells
[15] = PKIS compound screen, Yes/No call on z-scoreMRSA+
[16] = PKIS compound screen raw data, HeLa cell count, replicate 1
[17] = PKIS compound screen raw data, HeLa cell count, replicate 2
[18] = PKIS compound screen raw data, HeLa cell count, replicate 3
[19] = PKIS compound screen, HeLa cell count, mean of 3 replicates
[20] = PKIS compound screen, HeLa cell count, replicate 1
[21] = PKIS compound screen, HeLa cell count, replicate 2
[22] = PKIS compound screen, HeLa cell count, replicate 3
[23] = PKIS compound screen, Yes/No call on z-scoreHeLa
[24] = Yes/No: effect without cell death
[25] = compound screen, MRSA-infected HeLa cells
[26] = compound screen, HeLa cell count, mean of 3 replicates
[27] = compound screen, HeLa cell count, replicate 1
[28] = compound screen, HeLa cell count, replicate 2
[29] = compound screen, HeLa cell count, replicate 3

Molecule | effect [1, 3] | hit [1, 4] | z-scoreMRSA+ mean ([1]; PKIS compound screen) | z-scoreMRSA+ rep 1 ([1]; PKIS compound screen) | z-scoreMRSA+ rep 2 ([1]; PKIS compound screen) | z-scoreMRSA+ rep 3 ([1]; PKIS compound screen) | %GFP+ rep 1 [1, 5] [%] | %GFP+ rep 2 [1, 5] [%] | %GFP+ rep 3 [1, 5] [%] | cell death [2, 3] | z-scoreHeLa mean [2, 6] | z-scoreHeLa rep 1 [2, 7] | z-scoreHeLa rep 2 [2, 8] | z-scoreHeLa rep 3 [2, 9] | cell count rep 1 [2, 10] | cell count rep 2 [2, 11] | cell count rep 3 [2, 12] | %GFP+ rep 1 [1, 13] [%] | %GFP+ rep 2 [1, 13] [%] | %GFP+ rep 3 [1, 13] [%] | further results
Cn1cc(-c2ccc3c(c2)CCN3C(=O)Cc2cccc(F)c2)c2c(N)ncnc21 [GSK2603358A] | No | No | 0.42 | -0.03 | 0.66 | 0.62 | 26.9 | 29.5 | 30.6 | No | 0.76 | -0.12 | 0.60 | 1.79 | 5847 | 6919 | 8427 | – | – | – | –
SB-739245-AC | – | No | – | – | – | – | – | – | – | – | – | – | – | – | – | – | – | 12.9 | 15.6 | 16.3 | z-scoreMRSA+ mean [1, 14]: -1.17; z-scoreMRSA+ rep 1 [1, 14]: -1.57; z-scoreMRSA+ rep 2 [1, 14]: -0.88; z-scoreMRSA+ rep 3 [1, 14]: -1.06; effect [1, 15]: No; cell count rep 1 [2]: 23497; cell count rep 2 [2]: 32010; cell count rep 3 [2]: 40050; cell death [2]: No; z-scoreHeLa mean [2]: -0.0274; z-scoreHeLa rep 1 [2]: 0.51; z-scoreHeLa rep 2 [2]: -0.52; z-scoreHeLa rep 3 [2]: -0.0761
CC(C)c1nc(-c2cccc(NS(=O)(=O)c3ccccc3)c2)c(-c2ccnc(Nc3ccc4c(c3)CN(C)CC4)n2)s1 [GSK1649598A] | No | No and Yes | -0.25 | -0.30 | -0.22 | -0.22 | 25.5 | 24.9 | 26.1 | No | -0.86 | -1.22 | -0.62 | -0.73 | 4018 | 5078 | 4439 | 10.0 | 11.1 | 12.2 | z-scoreMRSA+ mean [1, 14]: -2.36; z-scoreMRSA+ rep 1 [1, 14]: -2.35; z-scoreMRSA+ rep 2 [1, 14]: -2.27; z-scoreMRSA+ rep 3 [1, 14]: -2.47; effect [1, 15]: Yes; cell count rep 1 [2, 16]: 27349; cell count rep 2 [2, 17]: 20392; cell count rep 3 [2, 18]: 19957; z-scoreHeLa mean [2, 19]: -0.37; z-scoreHeLa rep 1 [2, 20]: -0.48; z-scoreHeLa rep 2 [2, 21]: -0.84; z-scoreHeLa rep 3 [2, 22]: 0.20; cell death [2, 23]: No
Cc1cc(Cl)cc2c1NC(=O)C2=NNc1ccc(S(N)(=O)=O)cc1 [GW279320X] | No | No | 4.85 | 4.78 | 5.69 | 4.09 | 28.1 | 30.5 | 29.7 | No | 1.27 | 0.91 | 1.43 | 1.47 | 5783 | 6163 | 10033 | – | – | – | –
O=C(Nc1n[nH]c2cc(-c3ccsc3)ccc12)C1CC1 [SB-732932] | – | – | – | – | – | – | 25.2 | 22.2 | 22.6 | – | – | – | – | – | 6278 | 6296 | 8200 | – | – | – | effect ([1]; Yes/No call from z-scoreMRSA+): No; hit [1, 24]: No; z-scoreMRSA+ mean [1, 25]: 0.001; z-scoreMRSA+ rep 1 [1, 25]: -0.0173; z-scoreMRSA+ rep 2 [1, 25]: -0.10; z-scoreMRSA+ rep 3 [1, 25]: 0.12; cell death ([2]; Yes/No call from z-scoreHeLa): No; z-scoreHeLa mean [2, 26]: 1.60; z-scoreHeLa rep 1 [2, 27]: 1.39; z-scoreHeLa rep 2 [2, 28]: 1.54; z-scoreHeLa rep 3 [2, 29]: 1.87
Cc1c(O)cccc1Nc1ccnc2ccc(C(F)(F)F)cc12 [GW466413A] | – | – | – | – | – | – | – | – | – | – | – | – | – | – | – | – | – | 22.3 | 22.8 | 19.9 | effect ([1]; Yes/No call from z-scoreMRSA+): No; hit [1, 24]: No; z-scoreMRSA+ mean [1, 25]: -0.45; z-scoreMRSA+ rep 1 [1, 25]: -0.69; z-scoreMRSA+ rep 2 [1, 25]: 0.0454; z-scoreMRSA+ rep 3 [1, 25]: -0.69; cell count rep 1 [2, 16]: 3244; cell count rep 2 [2, 17]: 2982; cell count rep 3 [2, 18]: 4313; cell death ([2]; Yes/No call from z-scoreHeLa): No; z-scoreHeLa mean [2, 26]: -0.80; z-scoreHeLa rep 1 [2, 27]: -0.80; z-scoreHeLa rep 2 [2, 28]: -1.02; z-scoreHeLa rep 3 [2, 29]: -0.58
O=C(c1ccc(-c2cc(-c3c[nH]nc3-c3ccccn3)ccn2)cc1)N1CCOCC1 [GW812171X] | No | No | -0.14 | -0.40 | -0.08 | 0.06 | 25.0 | 25.6 | 27.6 | No | 1.19 | 2.02 | 0.77 | 0.78 | 9409 | 7175 | 6822 | – | – | – | –
CC(C)c1nc(-c2cccc(NS(=O)(=O)c3c(F)cccc3F)c2)c(-c2ccnc(Nc3ccc(N4CCOCC4)nc3)n2)s1 [GSK1723980B] | – | – | – | – | – | – | – | – | – | – | – | – | – | – | – | – | – | 10.5 | 11.7 | 10.2 | effect ([1]; Yes/No call from z-scoreMRSA+): Yes; hit [1, 24]: Yes; z-scoreMRSA+ mean [1, 25]: -3.23; z-scoreMRSA+ rep 1 [1, 25]: -3.44; z-scoreMRSA+ rep 2 [1, 25]: -2.65; z-scoreMRSA+ rep 3 [1, 25]: -3.59; cell count rep 1 [2, 16]: 2167; cell count rep 2 [2, 17]: 1981; cell count rep 3 [2, 18]: 2206; cell death ([2]; Yes/No call from z-scoreHeLa): No; z-scoreHeLa mean [2, 26]: -1.76; z-scoreHeLa rep 1 [2, 27]: -1.58; z-scoreHeLa rep 2 [2, 28]: -1.79; z-scoreHeLa rep 3 [2, 29]: -1.92
Cc1cccc(-c2nc(Nc3ccc4[nH]ncc4c3)c3ccccc3n2)n1 [GW857175X] | – | – | – | – | – | – | 13.1 | 11.5 | 12.7 | – | – | – | – | – | 2034 | 1268 | 3042 | – | – | – | effect ([1]; Yes/No call from z-scoreMRSA+): No; hit [1, 24]: No; z-scoreMRSA+ mean [1, 25]: -0.54; z-scoreMRSA+ rep 1 [1, 25]: -0.0227; z-scoreMRSA+ rep 2 [1, 25]: -0.67; z-scoreMRSA+ rep 3 [1, 25]: -0.94; cell death ([2]; Yes/No call from z-scoreHeLa): No; z-scoreHeLa mean [2, 26]: -2.21; z-scoreHeLa rep 1 [2, 27]: -2.48; z-scoreHeLa rep 2 [2, 28]: -2.27; z-scoreHeLa rep 3 [2, 29]: -1.88
Cc1cc(O)cc(C)c1/C=C/c1cncc(C(N)=O)c1 [GW435821X] | – | No | – | – | – | – | – | – | – | – | – | – | – | – | – | – | – | 14.7 | 15.8 | 16.5 | z-scoreMRSA+ mean [1, 14]: -0.94; z-scoreMRSA+ rep 1 [1, 14]: -1.00; z-scoreMRSA+ rep 2 [1, 14]: -0.82; z-scoreMRSA+ rep 3 [1, 14]: -1.00; effect [1, 15]: No; cell count rep 1 [2, 16]: 9030; cell count rep 2 [2, 17]: 26110; cell count rep 3 [2, 18]: 32002; z-scoreHeLa mean [2, 19]: -1.55; z-scoreHeLa rep 1 [2, 20]: -1.68; z-scoreHeLa rep 2 [2, 21]: -1.62; z-scoreHeLa rep 3 [2, 22]: -1.36; cell death [2, 23]: No
